Drawing on ChEMBL document CHEMBL6083219, “Rationally designed febuxostat-based hydroxamic acid and its pH-Responsive nanoformulation elicits anti-tumor activity” (Eur J Med Chem, 2024), this text covers IC50 and Activity for 19 molecules.

Each structure is given as a SMILES string. The source made the active and inactive calls. No cut-off for these calls is given here.

The subject of experiment [1] is HL-60. Type of experiment: functional, cell-based. The settings on record: Homo sapiens, HL-60, 48 h.
The next experiment concerns MDA-MB-231. Put plainly: cells. The settings on record: Homo sapiens, MDA-MB-231, 48 h.
The subject of another experiment is NCI-H1975. Type of experiment: functional, cell-based. The settings on record: Homo sapiens, NCI-H1975, 48 h.
In experiment [2] the target is Xanthine dehydrogenase/oxidase (Bos taurus, UniProt P80457). Put plainly: Inhibition of bovine milk xanthine oxidase.
The test system of experiment [3] is Rattus norvegicus. Put plainly: Anti-hyperuricemic activity against potassium oxonate-induced hyperuricemia Wistar rat model assessed as decrease in serum uric acid level at 10 mg/kg measured after 14 days. The class given is functional, organism-based. Particulars: time 14.0 day.
The subject of experiment [4] is Rattus norvegicus. Kind of experiment: Anti-hyperuricemic activity against potassium oxonate-induced hyperuricemia Wistar rat model assessed as decrease in serum creatinine level at 10 mg/kg measured after 14 days. The class given is functional, organism-based. The settings on record: time 14.0 day.
The test system of experiment [5] is Rattus norvegicus. Put plainly: Anti-hyperuricemic activity against potassium oxonate-induced hyperuricemia Wistar rat model assessed as decrease in blood urea level at 10 mg/kg measured after 14 days. Type of experiment: functional, organism-based. The settings on record: time 14.0 day.
Experiment [6] relates to HL-60. Kind of experiment: Downregulation of mTOR expression level in human HL-60 cells at 0.5 to 2 uM by Western blotting analysis. The class given is functional, cell-based. Particulars: dose 0.5-2 µM. On the technique in general: In western blotting, separated proteins are transferred to a membrane and probed.

Xanthine dehydrogenase/oxidase, sequence (P80457 whole entry): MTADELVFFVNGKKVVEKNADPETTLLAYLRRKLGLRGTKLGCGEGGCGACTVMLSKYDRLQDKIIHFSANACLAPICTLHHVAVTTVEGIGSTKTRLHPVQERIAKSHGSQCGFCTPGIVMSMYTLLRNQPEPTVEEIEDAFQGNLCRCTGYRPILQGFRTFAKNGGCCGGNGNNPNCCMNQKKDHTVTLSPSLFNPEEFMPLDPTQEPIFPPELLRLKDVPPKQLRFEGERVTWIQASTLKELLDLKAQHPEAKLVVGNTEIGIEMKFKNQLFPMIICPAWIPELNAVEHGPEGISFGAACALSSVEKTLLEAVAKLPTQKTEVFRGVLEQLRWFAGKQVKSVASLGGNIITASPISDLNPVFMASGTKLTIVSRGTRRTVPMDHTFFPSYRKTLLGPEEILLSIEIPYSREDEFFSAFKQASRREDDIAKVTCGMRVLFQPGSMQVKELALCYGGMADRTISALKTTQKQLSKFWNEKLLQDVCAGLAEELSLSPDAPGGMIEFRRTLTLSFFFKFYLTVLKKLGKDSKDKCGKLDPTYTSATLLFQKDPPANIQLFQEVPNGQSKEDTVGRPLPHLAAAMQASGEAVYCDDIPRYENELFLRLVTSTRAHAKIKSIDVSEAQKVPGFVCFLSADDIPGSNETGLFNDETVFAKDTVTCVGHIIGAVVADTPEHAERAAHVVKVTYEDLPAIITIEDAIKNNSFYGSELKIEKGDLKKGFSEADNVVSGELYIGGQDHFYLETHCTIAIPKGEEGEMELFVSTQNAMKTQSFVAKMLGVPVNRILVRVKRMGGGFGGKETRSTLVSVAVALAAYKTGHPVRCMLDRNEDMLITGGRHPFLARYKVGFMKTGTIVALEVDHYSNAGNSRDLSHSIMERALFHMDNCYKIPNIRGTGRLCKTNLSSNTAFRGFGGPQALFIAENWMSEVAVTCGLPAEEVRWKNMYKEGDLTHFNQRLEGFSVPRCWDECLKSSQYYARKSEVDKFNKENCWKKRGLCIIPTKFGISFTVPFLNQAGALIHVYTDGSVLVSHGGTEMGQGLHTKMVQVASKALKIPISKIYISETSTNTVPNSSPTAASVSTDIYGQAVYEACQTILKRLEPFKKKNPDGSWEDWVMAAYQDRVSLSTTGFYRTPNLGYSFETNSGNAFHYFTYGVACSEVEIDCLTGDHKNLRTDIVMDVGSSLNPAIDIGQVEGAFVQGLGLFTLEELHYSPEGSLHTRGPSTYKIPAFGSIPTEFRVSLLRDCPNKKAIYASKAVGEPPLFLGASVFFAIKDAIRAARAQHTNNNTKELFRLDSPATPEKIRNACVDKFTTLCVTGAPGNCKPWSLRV
Description for MDA-MB-231: Cytotoxicity against human MDA-MB-231 cells incubated for 48 hrs by MTT assay

As to `Cc1nc(-c2ccc(OCC(C)C)c(C#N)c2)sc1C(=O)NCc1ccc(NC(=O)CCCCCCCCC(=O)Nc2ccccc2N)cc1`, the half-maximal inhibitory concentration (IC50) – broadly, the concentration that inhibits the measured activity by half – in the experiment on HL-60 [1] was 4.25 µM; with MDA-MB-231, 3.38 µM; in the experiment on NCI-H1975, 28.8 µM; in experiment [2] it was over 2 µM.
Take `Cc1nc(-c2ccc(OCC(C)C)c(C#N)c2)sc1C(=O)NO`: the IC50 in the experiment with HL-60 [1] was 10.6 µM; in the experiment with MDA-MB-231 it was over 50 µM; with NCI-H1975 it was over 50 µM; in experiment [2], 0.0033 µM.
As to `Cc1nc(-c2ccc(OCC(C)C)c(C#N)c2)sc1C(=O)NCc1ccc(NC(=O)CCCCCCCC(=O)Nc2ccccc2N)cc1`, the IC50 in the experiment on HL-60 [1] was 1.64 µM; in the experiment with MDA-MB-231 it was 3.81 µM; in the experiment on NCI-H1975, 11.2 µM; in experiment [2] it was over 2 µM.
Regarding `Cc1nc(-c2ccc(OCC(C)C)c(C#N)c2)sc1C(=O)NCc1ccc(NC(=O)CCCCCCC(=O)Nc2ccccc2N)cc1`, the IC50 in the experiment on HL-60 [1] was 1.58 µM; in the experiment on MDA-MB-231, 5.55 µM; in the experiment with NCI-H1975, 9.36 µM; in experiment [2] it was over 2 µM.
Taken in the same sequence, the figures for `Cc1nc(-c2ccc(OCC(C)C)c(C#N)c2)sc1C(=O)NCc1ccc(NC(=O)CCCCCCCC(=O)NO)cc1` were over 50 µM, 31.5 µM, 18.7 µM and over 2 µM.
With `Cc1nc(-c2ccc(OCC(C)C)c(C#N)c2)sc1C(=O)NCc1ccc(C(=O)NO)cc1`, the IC50 in the experiment on HL-60 [1] is 0.805 µM; in the experiment on MDA-MB-231, 4.09 µM; in the experiment on NCI-H1975 it was 11.4 µM; in experiment [2], 0.021 µM.
For the molecule `Cc1nc(-c2ccc(OCC(C)C)c(C#N)c2)sc1C(=O)NCc1ccc(C(=O)Nc2ccccc2N)cc1`, the IC50 with HL-60 [1] was 1.01 µM; with MDA-MB-231, 9.63 µM; with NCI-H1975, 18.3 µM; in experiment [2] it was over 2 µM.
On the same counts, the results for `Cc1nc(-c2ccc(OCC(C)C)c(C#N)c2)sc1C(=O)NCc1ccc(NC(=O)CCCCCCC(=O)NO)cc1` are 3.42 µM, 12.4 µM, 12.6 µM and over 2 µM.
On to `Cc1nc(-c2ccc(OCC(C)C)c(C#N)c2)sc1C(=O)NCc1ccc(NC(=O)CCCCCC(=O)NO)cc1`, for which the concentration for half-maximal inhibition (IC50) in the experiment with HL-60 [1] was 18 µM; with MDA-MB-231 it was over 50 µM; in the experiment with NCI-H1975 it was over 50 µM; in experiment [2] it was over 2 µM.
Regarding `Cc1nc(-c2ccc(OCC(C)C)c(C#N)c2)sc1C(=O)NCc1ccc(NC(=O)CCCCCCCCC(=O)NO)cc1`, the IC50 was 3.04 µM in the experiment on HL-60 [1], over 50 µM with MDA-MB-231, 8.61 µM with NCI-H1975 and over 2 µM in experiment [2].
In the case of `Cc1nc(-c2ccc(OCC(C)C)c(C#N)c2)sc1C(=O)NCCCCCC(=O)NO`, the IC50 with HL-60 [1] came out at 1.29 µM; in the experiment on MDA-MB-231, 6.35 µM; with NCI-H1975 it was 6.77 µM; in experiment [2] it was 0.0062 µM.
On to `Cc1nc(-c2ccc(OCC(C)C)c(C#N)c2)sc1C(=O)O` [FEBUXOSTAT], for which the IC50 with HL-60 [1], in the experiment with MDA-MB-231 and in the experiment with NCI-H1975 was over 100 µM throughout. Also, the outcome in the experiment with Rattus norvegicus [3], in the experiment on Rattus norvegicus [4] and with Rattus norvegicus [5] was Active.
As for `Cc1nc(-c2ccc(OCC(C)C)c(C#N)c2)sc1C(=O)Nc1ccccc1N`, the IC50 with HL-60 [1] was 1.26 µM; in the experiment on MDA-MB-231, over 50 µM; in the experiment with NCI-H1975, over 50 µM; in experiment [2] it was 0.076 µM.
On to `Cc1nc(-c2ccc(OCC(C)C)c(C#N)c2)sc1C(=O)NCc1ccc(C(=O)NCCCCCCC(=O)Nc2ccccc2N)cc1`, for which the half-inhibitory concentration (IC50) was 0.696 µM with HL-60 [1], over 50 µM in the experiment on MDA-MB-231, over 50 µM in the experiment with NCI-H1975 and over 2 µM in experiment [2].
Turning to `Cc1nc(-c2ccc(OCC(C)C)c(C#N)c2)sc1C(=O)NCc1ccc(NC(=O)CCCCCC(=O)Nc2ccccc2N)cc1`, the IC50 was 11.8 µM with HL-60 [1], 19.6 µM in the experiment with MDA-MB-231, 28.3 µM with NCI-H1975 and over 2 µM in experiment [2].
Regarding `Cc1nc(-c2ccc(OCC(C)C)c(C#N)c2)sc1C(=O)NCc1ccc(C(=O)NCCCCCCC(=O)NO)cc1`, the IC50 with HL-60 [1] was 0.56 µM; in the experiment on MDA-MB-231, 9.9 µM; with NCI-H1975 it was over 50 µM; in experiment [2] it was over 2 µM.
On to `O=C(CCCCCCC(=O)Nc1ccccc1)NO`, for which the result with HL-60 [6] was Active.
For the molecule `Cc1nc(-c2ccc(OCC(C)C)c(C#N)c2)sc1C(=O)NCCCCCC(=O)Nc1ccccc1N`, the IC50 in the experiment on HL-60 [1] worked out at 1.71 µM; in the experiment on MDA-MB-231, 7.08 µM; in the experiment on NCI-H1975, 18.2 µM; in experiment [2] it was 0.7 µM.
On the same counts, the results for `Cc1nc(-c2ccc(OCC(C)C)c(C#N)c2)sc1C(=O)NCCCCCCC(=O)Nc1ccccc1N` are 1.54 µM, 41.1 µM, over 50 µM and 0.85 µM.
